Key:
[1] = tested on: SCA1 mice; experiment: rotarod test, arginine from 3 weeks of age; format: in vivo, mouse; conditions: 6% by weight arginine in drinking water from 3 weeks of age
Text: SCA1 mice express the abnormally expanded polyQ protein (the mutant ataxin 1 protein with polyQ repeats consisting of 154 glutamines) at endogenous levels and with accurate temporal and spatial patterns, and replicates numerous aspects of the human disease including progressive motor deficit. The SCA1 mice used in this experiment were a kind gift from Dr. Kei Watase (Tokyo Medical and Dental University, Japan).
Rotarod tests have been previously utilized for the assessment of motor function in SCA1 mice (Non-Patent Document 15).
For rotarod analysis, mice were tested on an accelerating rotarod apparatus (Ugo Basile) and performed according to the method described in Non-Patent Document 17. The time courses of the amount of walking time until wild type mice and SCA1 mice fell from the rotarod (Latency) are shown in FIG. 17. […] In the figure, values represent means±SEM (n=16-18), “**” represents p<0.01, and “***” represents p<0.001, respectively.

[2] = tested on: SCA1 mice; experiment: immunohistochemical analysis of PolyQ inclusion bodies in brain; format: in vivo, mouse; conditions: 12-week-old SCA1 mice, 6% arginine in drinking water from 3 weeks
Description: It was reported that SCA1 mice develop polyQ inclusion bodies (PolyQ protein aggregates) in their neurons of the cerebral cortex and hippocampus from around 4 weeks of age (Non-Patent Document 15).
PolyQ inclusion bodies in brain sections were detected using immunohistochemical analysis. First, ten-micrometer-thick frozen sections of 12 week-old SCA1 mouse brains were prepared according to the method described in Non-Patent Document 17. The sections were blocked in PBS containing 5% goat serum and 0.1% Triton X-100 for 1 hour at room temperature, then incubated with a rabbit anti-ubiquitin antibody (clone FK2, 1:500) at 4° C. overnight, followed by an Alexa Fluor 488-conjugated goat anti-rabbit IgG antibody (1:1,000, Life Technologies) for 1 hour at room temperature. […]
By confocal laser scanning microscopy, inclusion bodies stained with the anti-ubiquitin antibody can be visualized. Therefore, the sections were observed using a confocal laser scanning microscope, cells included in the field of view were counted, and the percentage (%) of the cells in which the inclusion bodies were formed to the total number of cells was measured. In each mouse, the cell count was averaged for 3 fields of view, in which over 130 or 70 cells were counted in the cortex or hippocampus, respectively. […]

[3] = tested on: SBMA mice; experiment: horizontal open-field activity and rearing behavior; format: in vivo, mouse; conditions: 6% arginine in drinking water from 3 weeks; 12 weeks of age
Text: As another PolyQ disease mouse model, the SBMA mouse (Non-Patent Document 18) was used. […] This motor dysfunction can be reversed with drug treatment (Non-Patent Document 19). The SBMA mouse used in this experiment was a kind gift from Dr. Gen Sobue (Nagoya University, Japan).
The motor dysfunction of the SBMA mouse can be monitored as spontaneous motor dysfunction, by measuring horizontal open-field activity and rearing behavior in the cage (Non-Patent Document 18). […] As a control, water without arginine was given to SBMA mice as drinking water (arginine untreated).
Horizontal open-field activity and rearing behavior were measured using a spontaneous locomotor activity monitor “Supermex” (Muromachi Kikai) according to the method described in Non-Patent Document 18. Specifically, a mouse was placed in a measuring cage in which infrared beams were projected inside and were allowed to move around freely. When the mouse moves inside the measuring cage, the infrared beam is obstructed and the infrared ray cannot be detected by the light receiving part (beam break). The number of beam breaks per minute was determined by measuring the number of beam breaks (counts/min). To detect movements in the horizontal direction, the number of beam breaks of the infrared beams projected in the vertical direction were counted. […]

[4] = target: T1, amyloid-β (beta) 1-42 (Homo sapiens, UniProt P05067); conditions: Non-Patent Document 2; cited from earlier work
T1 construct: amyloid-β (beta) 1-42
T1 sequence (P05067 672-713 limits assumed): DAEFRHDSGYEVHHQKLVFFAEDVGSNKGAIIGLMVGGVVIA

[5] = tested on: Thio-Q62 protein; experiment: seed-induced polyQ aggregation reaction (turbidity); format: biochemical; conditions: 10 μM Thio-Q62 + seeds, 400 mM arginine or proline, 37° C., 7 days
Description: A solution in which abnormally expanded proteins were dissolved in physiological saline phosphate (PBS) was used as a measurement sample. The solution was incubated at 37° C., and turbidity at 405 nm was measured every 24 hours using a microplate reader “Spectramax Plus plate reader” (Molecular Devices Inc.).

[6] = tested on: Q40-GFP expressing nematode line; experiment: lifespan analysis in C. elegans model of the PolyQ diseases; format: in vivo, Caenorhabditis elegans; conditions: 10 mM arginine; log-rank P<0.01
Description: As a C. elegans model of the polyQ diseases, a Q40-GFP expressing nematode line (Non-Patent Document 14), which is a C. elegans line expressing GFP having a polyQ repeat consisting of 40 glutamines (Q40-GFP) was used.
Nematodes were grown at 20° C. on nematode growth medium (NGM) plates seeded with Escherichia coli OP50. For the generation of the Q40-GFP expression nematode line, plasmids encoding Q40-GFP were injected into wild type strain N2.
For lifespan analysis, nematodes were cultured on OP50 bacteria, and were examined daily for signs of life.

[7] = tested on: SCA1 mice; experiment: rotarod test, arginine from 5 weeks of age (after onset); format: in vivo, mouse; conditions: 6% arginine in drinking water from 5 weeks of age; 7 to 19 weeks of age; significant at 15 and 19 weeks
Description: An important factor of consideration in developing treatments for neurodegenerative diseases including polyQ diseases is whether the drug exerts its therapeutic effect at the symptomatic phase when the pathological process has already progressed. To date, therapeutic candidates have been administered to polyQ disease mice prophylactically at the pre-symptomatic phase in most preclinical studies.
The rotarod test was carried out in the same manner as in Example 4. The time courses of the amount of walking time until wild type mice and SCA1 mice fell from the rotarod (Latency) are shown in FIG. 21. In the figure, “WT Water”, “WT Arg”, “SCA1 Water”, and “SCA1 Arg” represent the same as in FIG. 17. In the figure, values represent means±SEM (n=23-25), “*” represents p<0.05.

N=C(N)NCCC[C@H](N)C(=O)O [arginine]
motor function, rotarod latency ([1]; 4 to 12 weeks of age): significantly better than the untreated mice
therapeutic effect on rotarod, duration ([1]; until 28 weeks of age): remained significant until 28 weeks of age
percentage of cells with inclusion body formation, cerebral cortex [2]: significantly decreased
percentage of cells with inclusion body formation, hippocampus [2]: significantly decreased
horizontal activity [3]: improved to levels comparable to untreated wild type mice
rearing behavior [3]: improved to levels comparable to untreated wild type mice
aggregation of amyloid-β 1-42 [4]: prevents aggregation
seed-induced increase in turbidity [5]: markedly decreased
survival rate [6]: significantly improved
time to walk without falling from the rotarod [7]: longer time to walk without falling from the rotarod than the untreated SCA1 mice
